Test results reported in ChEMBL document CHEMBL1201862, “PubChem BioAssay data set” (2004).
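Grown in 96-well plates, cells were treated for 48 hours with each compound at five concentrations. Insufficient inhibition: endpoint recorded as highest concentration tested. GI50 is the concentration that inhibits growth by half.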 Calls of active or inactive are those of the source. No stated cut-off is given here; in the data, active = GI50 up to about 1.1 µM and inactive = higher.

Columns and labels:
Assay in all cases: NCI-60 cell line screen, 48 h
MOLT-4 = system: MOLT-4
OVCAR-8 = system: OVCAR-8
OVCAR-4 = system: OVCAR-4
DU-145 = system: DU-145
HOP-92 = system: HOP-92
HT-29 = system: HT-29
SF-295 = system: SF-295
COLO 205 = system: COLO 205
SK-OV-3 = system: SK-OV-3
HCT-116 = system: HCT-116
SW-620 = system: SW-620
SK-MEL-28 = system: SK-MEL-28
NCI-H460 = system: NCI-H460
UACC-257 = system: UACC-257
HOP-62 = system: HOP-62
SNB-75 = system: SNB-75
Hs-578T = system: Hs-578T
T47D = system: T47D
MDA-MB-435 = system: MDA-MB-435
RPMI-8226 = system: RPMI-8226

Measured: GI50

COc1cc2c(cc1OC)CN1CCc3ccccc3CC1C2 (stereo not given)
inactive: MOLT-4 28.8 µM | OVCAR-8 44.1 µM | OVCAR-4 16.1 µM | DU-145 37.6 µM | HOP-92 12.5 µM | HT-29 12.6 µM | SF-295 34.6 µM | COLO 205 25.1 µM | SK-OV-3 53.5 µM | HCT-116 23.8 µM | SW-620 37.8 µM | SK-MEL-28 63.1 µM | NCI-H460 26.3 µM | UACC-257 51.4 µM | HOP-62 65.8 µM | SNB-75 29 µM | Hs-578T > 100 µM | T47D 22.5 µM | MDA-MB-435 86.5 µM

CCCCCCCCCCCCCCCCOCC(COP(=O)([O-])OCC[n+]1ccc(N(C)C)cc1)OCC (stereo not given)
inactive: MOLT-4 4.52 µM | OVCAR-8 19.5 µM | OVCAR-4 15.8 µM | DU-145 16.5 µM | HOP-92 17 µM | HT-29 13.9 µM | RPMI-8226 4.12 µM | SF-295 16.5 µM | COLO 205 13.6 µM | HCT-116 11.3 µM | SW-620 18.3 µM | SK-MEL-28 17.6 µM | NCI-H460 12.1 µM | HOP-62 12.3 µM | SNB-75 2.97 µM | Hs-578T 17.9 µM | T47D 18 µM | MDA-MB-435 17.7 µM

CCCCCCCCC/C=C1/CC(CO)(COC(=O)C2CCCCC2)OC1=O (stereo not given)
inactive: MOLT-4 > 100 µM | OVCAR-8 > 100 µM | OVCAR-4 > 100 µM | DU-145 > 100 µM | HOP-92 > 100 µM | HT-29 > 100 µM | SF-295 > 100 µM | COLO 205 34 µM | SK-OV-3 > 100 µM | HCT-116 > 100 µM | SW-620 > 100 µM | SK-MEL-28 > 100 µM | NCI-H460 > 100 µM | UACC-257 > 100 µM | HOP-62 63.7 µM | SNB-75 > 100 µM | Hs-578T 62.8 µM | T47D > 100 µM | MDA-MB-435 98.4 µM

COc1ccc(/C=C2\CN(C)CC3C2=NN(c2ccccc2)C3c2ccc(OC)cc2)cc1 (stereo not given)
inactive: MOLT-4 > 100 µM | OVCAR-8 67.5 µM | OVCAR-4 > 100 µM | DU-145 > 100 µM | HOP-92 28 µM | HT-29 > 100 µM | RPMI-8226 > 100 µM | SF-295 62.2 µM | COLO 205 > 100 µM | SK-OV-3 16.6 µM | HCT-116 > 100 µM | SW-620 > 100 µM | SK-MEL-28 > 100 µM | NCI-H460 > 100 µM | UACC-257 > 100 µM | HOP-62 38 µM | Hs-578T 42.8 µM | T47D > 100 µM | MDA-MB-435 > 100 µM
